Several values for one entry are separate records, joined by “and”; a condition that tells them apart may be missing. Identical values can stand only once.
Assay: xn = mol fraction of the nth substance listed

CCCC[n+]1ccn(C)c1.[Cl][Al-]([Cl])([Cl])[Cl] + [Al+3].[Cl-].[Cl-].[Cl-]
viscosity [mPa·s], 101 kPa
Conditions	293.15 K	298.15 K	303.15 K	308.15 K	313.15 K	318.15 K	323.15 K
x2 = 0.46	30.8	27	24.1	21	18.4	16.4	14.8
x2 = 0.57	31.4	27.3	23.7	20.8	18.3	16.4	14.7

CC(C)(C)O + c1ccccc1
Conditions	viscosity [mPa·s]
298.15 K, 101 kPa, x1 = 0.0105	0.5986
298.15 K, 101 kPa, x1 = 0.02032	0.5966
298.15 K, 101 kPa, x1 = 0.02705	0.5958
298.15 K, 101 kPa, x1 = 0.03393	0.5954
298.15 K, 101 kPa, x1 = 0.04376	0.5954
298.15 K, 101 kPa, x1 = 0.05002	0.5954
298.15 K, 101 kPa, x1 = 0.06281	0.5966
298.15 K, 101 kPa, x1 = 0.07569	0.598
298.15 K, 101 kPa, x1 = 0.08395	0.5995
298.15 K, 101 kPa, x1 = 0.1597	0.6201
298.15 K, 101 kPa, x1 = 0.2472	0.6577
298.15 K, 101 kPa, x1 = 0.5139	0.886
298.15 K, 101 kPa, x1 = 0.9027	2.579
303 K, 101.3 kPa, x2 = 0.1001	2.487
303 K, 101.3 kPa, x2 = 0.2137	1.787
303 K, 101.3 kPa, x2 = 0.3033	1.395
303 K, 101.3 kPa, x2 = 0.4117	1.08
303 K, 101.3 kPa, x2 = 0.5129	0.8736
303 K, 101.3 kPa, x2 = 0.6126	0.7351
303 K, 101.3 kPa, x2 = 0.7187	0.6441
303 K, 101.3 kPa, x2 = 0.8046	0.6103
303 K, 101.3 kPa, x2 = 0.8998	0.5822
303.2 K, 101.33 kPa, x2 = 0.05	2.528
303.2 K, 101.33 kPa, x2 = 0.1	1.968
303.2 K, 101.33 kPa, x2 = 0.15	1.598
303.2 K, 101.33 kPa, x2 = 0.2	1.356
303.2 K, 101.33 kPa, x2 = 0.3	1.06
303.2 K, 101.33 kPa, x2 = 0.4	0.87
303.2 K, 101.33 kPa, x2 = 0.5	0.753
303.2 K, 101.33 kPa, x2 = 0.6	0.671
303.2 K, 101.33 kPa, x2 = 0.7	0.609
303.2 K, 101.33 kPa, x2 = 0.8	0.57
303.2 K, 101.33 kPa, x2 = 0.85	0.559
303.2 K, 101.33 kPa, x2 = 0.9	0.553
303.2 K, 101.33 kPa, x2 = 0.95	0.552

CCCBr + c1ccccc1
308.15 K, 101 kPa
Conditions	viscosity [mPa·s]
x2 = 0.1021	0.4369
x2 = 0.2992	0.4373
x2 = 0.3987	0.4413
x2 = 0.5041	0.4461
x2 = 0.6028	0.4525
x2 = 0.7033	0.4619
x2 = 0.8414	0.478
x2 = 0.8979	0.4898

CCCC(=O)OC + c1ccccc1
viscosity [mPa·s], 101 kPa
Conditions	x2 = 0.1316	x2 = 0.1994	x2 = 0.2999	x2 = 0.3974	x2 = 0.5001	x2 = 0.6023	x2 = 0.7044	x2 = 0.7999	x2 = 0.8939
298.15 K	0.536	0.534	0.535	0.536	0.54	0.544	0.551	0.561	0.575
313.15 K	0.451	0.45	0.45	0.451	0.453	0.456	0.46	0.466	0.476

CCNCC + c1ccccc1
viscosity, 101.33 kPa
Conditions	x1 = 0.2	x1 = 0.4	x1 = 0.5	x1 = 0.6	x1 = 0.8
293.15 K	0.522 mPa·s and 0.522 mPa·s	0.44 mPa·s	0.411 mPa·s and 0.411 mPa·s	0.387 mPa·s	0.349 mPa·s
303.15 K	0.463 mPa·s	0.393 mPa·s	0.367 mPa·s	0.348 mPa·s	0.314 mPa·s
308.15 K	0.438 mPa·s and 0.438 mPa·s	0.374 mPa·s	0.35 mPa·s and 0.35 mPa·s	0.333 mPa·s	0.298 mPa·s
